# Test results published in patent publication US7858635B2 (priority 2005, dated 2010).
# Assays:
# [1] = molecular target: T1, M4 muscarinic receptor (Homo sapiens, UniProt P08173); assay: Functional mobilization of intracellular calcium (FLIPR, Fluo-3), M4-CHO cells; type: cell-based; details: compound nos. 1-454; for Emax / M4 Efficacy: 100% efficacy is the maximum response obtained with the Carbachol control; for Emax: read-out: M4 Efficacy
# T1 construct: expressed in transfected cells; host or cells: CHO cells (M4-CHO, under puromycin, zeocin and blasticidin selection)
# T1 sequence (P08173 1-479): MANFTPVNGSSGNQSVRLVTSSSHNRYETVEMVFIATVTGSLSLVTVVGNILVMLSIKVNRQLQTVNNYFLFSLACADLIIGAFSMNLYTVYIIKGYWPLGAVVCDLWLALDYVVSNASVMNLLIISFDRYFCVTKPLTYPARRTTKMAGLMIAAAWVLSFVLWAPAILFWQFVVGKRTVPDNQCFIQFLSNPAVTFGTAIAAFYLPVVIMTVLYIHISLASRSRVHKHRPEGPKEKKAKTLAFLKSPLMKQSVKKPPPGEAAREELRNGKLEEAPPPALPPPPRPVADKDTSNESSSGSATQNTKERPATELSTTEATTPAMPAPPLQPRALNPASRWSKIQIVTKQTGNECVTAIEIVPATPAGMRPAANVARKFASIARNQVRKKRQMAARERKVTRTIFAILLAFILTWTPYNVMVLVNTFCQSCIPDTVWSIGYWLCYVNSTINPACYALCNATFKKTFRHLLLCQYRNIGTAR
# Method in brief: (§1)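 Fluo-3 read-out, ex 488/em 540 nm, 60 sec on FLIPR 3. For agonist mode, compound added directly; for inhibition, 15 min compound pre-incubation before carbachol at EC80 (added as a 3× solution), or co-application. Buffer pH 7.4 with 1 mM probenecid; DMSO 0.5%.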
# [2] = molecular target: T2, M1 muscarinic receptor (Homo sapiens, UniProt P11229); assay: Functional mobilization of intracellular calcium (FLIPR, Fluo-3), M1-CHO cells; type: cell-based; details: compound nos. 1-454; for Emax / M1 Efficacy: 100% efficacy is the maximum response obtained with the Carbachol control; for Emax: read-out: M1 Efficacy
# T2 construct: expressed in transfected cells; host or cells: CHO cells (M1-CHO, under zeocin and G418 selection)
# T2 sequence (P11229 1-460): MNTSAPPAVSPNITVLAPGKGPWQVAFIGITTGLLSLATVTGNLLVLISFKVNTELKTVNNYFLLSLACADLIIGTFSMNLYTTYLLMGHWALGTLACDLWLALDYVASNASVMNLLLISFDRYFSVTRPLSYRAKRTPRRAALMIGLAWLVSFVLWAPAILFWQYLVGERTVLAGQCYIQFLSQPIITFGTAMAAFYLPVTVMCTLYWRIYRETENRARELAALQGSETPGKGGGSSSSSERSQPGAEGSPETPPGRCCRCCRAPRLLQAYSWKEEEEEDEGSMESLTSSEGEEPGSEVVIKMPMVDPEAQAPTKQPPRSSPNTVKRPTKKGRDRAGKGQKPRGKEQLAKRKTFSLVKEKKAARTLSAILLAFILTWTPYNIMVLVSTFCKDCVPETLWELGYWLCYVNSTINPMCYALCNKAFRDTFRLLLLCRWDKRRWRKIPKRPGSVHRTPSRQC
# Method in brief: as §1
SMILES,M4 Activity [1],Emax [1],M1 Activity [2],Emax [2],M4 Efficacy [1],M1 Efficacy [2]
CC(=O)N1CC2(CCN(CC3CCCCC3)CC2)c2cc(F)ccc21 [compound 393],+ (activity was measured to be greater than or equal to 4.0 μM),< 55%,+++ (activity was measured to be less than or equal to 0.7 μM),65 to 85%,–,–
CC(=O)N1CC2(CCN(C3CCN(C(=O)OCCF)C3)CC2)c2cc(F)ccc21 (stereo not shown) [compound 394],++ (activity was measured to be between 0.1 μM and 4.0 μM),< 55%,+++ (activity was measured to be less than or equal to 0.7 μM),< 65%,–,–
CC(=O)N1CC2(CCN(C3CCCN(C(=O)OC(C)C)CC3)CC2)c2cc(F)ccc21 (stereo not shown) [compound 395],+ (activity was measured to be greater than or equal to 4.0 μM),< 55%,+++ (activity was measured to be less than or equal to 0.7 μM),< 65%,–,–
Cc1ccc2c(c1)C1(CCN(C3CC4CCC(C4)C3)CC1)CN2 (stereo not shown) [compound 397],+ (activity was measured to be greater than or equal to 4.0 μM),< 55%,++ (activity was measured to be between 0.7 μM and 3.0 μM),65 to 85%,–,–
CC(=O)N1CC2(CCN(C3CCN(C(=O)O[C@H]4CCOC4)CC3)CC2)c2cc(C)ccc21 [compound 398],+ (activity was measured to be greater than or equal to 4.0 μM),< 55%,++ (activity was measured to be between 0.7 μM and 3.0 μM),< 65%,–,–
CC(=O)N[C@H]1CC2(CCN(CC3CCN(C(=O)OC(C)C)CC3)CC2)c2ccccc21 [compound 399],++ (activity was measured to be between 0.1 μM and 4.0 μM),< 55%,++ (activity was measured to be between 0.7 μM and 3.0 μM),65 to 85%,–,–
CCNC(=O)N1CC2(CCN(C3CC4CCC3C4)CC2)c2cc(C)ccc21 (stereo not shown) [compound 400],+ (activity was measured to be greater than or equal to 4.0 μM),< 55%,+ (activity was measured to be greater than or equal to 3.0 μM),< 65%,–,–
CCOC(=O)N1CCC(N2CCC3(CC2)CN(C(=O)c2ccc4c(c2)OCO4)c2ccc(F)cc23)CC1 [compound 401],+ (activity was measured to be greater than or equal to 4.0 μM),< 55%,+++ (activity was measured to be less than or equal to 0.7 μM),65 to 85%,–,–
CC(C)OC(=O)N1C2CCC1CC(N1CCC3(CC1)CN(C(=O)O[C@@H]1CCOC1)c1ccc(F)cc13)C2 (stereo partly shown) [compound 402],+ (activity was measured to be greater than or equal to 4.0 μM),–,++ (activity was measured to be between 0.7 μM and 3.0 μM),–,+ (efficacy was calculated to be 55% or less),++ (efficacy was calculated to be between 85% and 65%)
CC(=O)N1CC2(CCN(CC3CCN(C(=O)O[C@@H]4CCOC4)CC3)CC2)c2cc(C)ccc21 [compound 403],+ (activity was measured to be greater than or equal to 4.0 μM),< 55%,+++ (activity was measured to be less than or equal to 0.7 μM),65 to 85%,–,–
CC(=O)N1CC2(CCN(CC3CCN(C(=O)OC(C)C)CC3)CC2)c2cc(C)ccc21 [compound 404],+ (activity was measured to be greater than or equal to 4.0 μM),< 55%,++ (activity was measured to be between 0.7 μM and 3.0 μM),< 65%,–,–
CCCOC(=O)N1C2CCC1CC(N1CCC3(CC1)CN(C(=O)OCCOC)c1ccc(F)cc13)C2 (stereo not shown) [compound 405],+ (activity was measured to be greater than or equal to 4.0 μM),< 55%,++ (activity was measured to be between 0.7 μM and 3.0 μM),< 65%,–,–
C/C=C\c1ccc2c(c1)C1(CCN(C3CCN(C(=O)OCC)CC3)CC1)CN2C(C)=O [compound 407],+ (activity was measured to be greater than or equal to 4.0 μM),< 55%,++ (activity was measured to be between 0.7 μM and 3.0 μM),< 65%,–,–
CC(=O)NC1CC2(CCN(C[C@@H]3C[C@H]4C=C[C@H]3C4)CC2)c2ccccc21 (stereo partly shown) [compound 408],+++ (activity was measured to be less than or equal to 0.1 μM),55 to 70%,+++ (activity was measured to be less than or equal to 0.7 μM),65 to 85%,–,–
CCOC(=O)N1C2CCC1CC(N1CCC3(CC1)CN(C(=O)OC1CCC1)c1ccc(F)cc13)C2 (stereo not shown) [compound 409],+++ (activity was measured to be less than or equal to 0.1 μM),> 70%,+++ (activity was measured to be less than or equal to 0.7 μM),> 85%,–,–
CCOC(=O)N1CCC(N2CCC3(CC2)CN(C(=O)c2cccc(F)c2)c2ccc(F)cc23)CC1 [compound 410],++ (activity was measured to be between 0.1 μM and 4.0 μM),< 55%,++ (activity was measured to be between 0.7 μM and 3.0 μM),< 65%,–,–
Cc1cc(C(=O)N2CC3(CCN(C4CC5CCC(C4)N5C(=O)O[C@H]4CCOC4)CC3)c3cc(F)ccc32)nn1C (stereo partly shown) [compound 411],++ (activity was measured to be between 0.1 μM and 4.0 μM),–,+++ (activity was measured to be less than or equal to 0.7 μM),–,+ (efficacy was calculated to be 55% or less),+ (efficacy was calculated to be 65% or less)
COCCOC(=O)N1CCC(CN2CCC3(CC2)C[C@H](NC(C)=O)c2ccccc23)CC1 [compound 412],+ (activity was measured to be greater than or equal to 4.0 μM),< 55%,++ (activity was measured to be between 0.7 μM and 3.0 μM),< 65%,–,–
CCOC(=O)N1CCC(N2CCC3(CC2)CN(C(C)=O)c2ccc(F)cc23)CC1 [compound 413],++ (activity was measured to be between 0.1 μM and 4.0 μM),< 55%,+++ (activity was measured to be less than or equal to 0.7 μM),< 65%,–,–
CCOC(=O)N1CCC(CN2CCC3(CCc4ccccc43)CC2)CC1 [compound 414],+ (activity was measured to be greater than or equal to 4.0 μM),< 55%,+ (activity was measured to be greater than or equal to 3.0 μM),< 65%,–,–
Clc1ccc2c(c1)C1(CCN(CC3CCOCC3)CC1)CO2 [compound 415],+ (activity was measured to be greater than or equal to 4.0 μM),< 55%,+ (activity was measured to be greater than or equal to 3.0 μM),< 65%,–,–
Fc1ccc2c(c1)C1(CCN(C3CC4CCC3C4)CC1)CN2 (stereo not shown) [compound 416],+ (activity was measured to be greater than or equal to 4.0 μM),< 55%,+ (activity was measured to be greater than or equal to 3.0 μM),< 65%,–,–
CCOC(=O)N1C2CCC1CC(N1CCC3(CC1)CN(C(C)=O)c1ccc(Cl)cc13)C2 (stereo not shown) [compound 417],+ (activity was measured to be greater than or equal to 4.0 μM),< 55%,++ (activity was measured to be between 0.7 μM and 3.0 μM),< 65%,–,–
CC(=O)N1CC2(CCN(C3CCN(C(=O)O[C@H]4CCOC4)CC3)CC2)c2cc(F)ccc21 [compound 418],+ (activity was measured to be greater than or equal to 4.0 μM),< 55%,+ (activity was measured to be greater than or equal to 3.0 μM),< 65%,–,–
COCCOC(=O)N1CCC(CN2CCC3(CC2)CN(C(C)=O)c2ccc(C)cc23)CC1 [compound 419],+ (activity was measured to be greater than or equal to 4.0 μM),< 55%,+ (activity was measured to be greater than or equal to 3.0 μM),< 65%,–,–
